Values quoted from earlier work as cited in US20120277693A1, “METHOD AND APPARATUS FOR IMPROVING THE APPEARANCE OF NAILS AFFECTED BY ONYCHOMYCOSIS THROUGH THE TOPICAL APPLICATION OF AN AQUEOUS SOLUTION CONTAINING BORIC ACID AND CAMPHOR OR OTHER TERPENES” (priority 2009, published 2012).

Key:
fungal nail infection = conditions: topical lacquer painted daily on infected nails
[1] = in boiling water; believed to be approximately; also printed as 280 g/L or 4.53 mole/L

boric acid concentration, supersaturated [1]	Compound	patients in whom the treatment is effective (fungal nail infection)
	Cc1cc(C2CCCCC2)n(O)c(=O)c1 [ciclopirox]	less than 10%
approximately 28%	OB(O)O [boric acid]	
